Assay results: publication PMC7031696 (Cell chemical biology, 2019)
Read-outs that look alike come from different tables or passages of the source.

How the values were obtained:
[1] = tested on: asynchronous 3D7-A10 parasite cultures; assay: Standard 72-h exposure asexual blood stage susceptibility assay (IC50^72h); type: cell-based, Plasmodium falciparum; details: Plasmodium falciparum, 3D7, 72 h, read-out: Overall (72hr assay) Mean IC50 (IC50^72h)
[2] = tested on: Plasmodium falciparum 3D7-A10 parasites; assay: Stage specificity assay (8-h exposure of synchronized stages, IC50^8h); type: cell-based; details: for IC50: Plasmodium falciparum
[3] = tested on: 3D7-MR4 trophozoite parasite-infected RBCs; assay: Metabolomic profiling (hydrophilic metabolite changes, UHPLC-MS); type: cell-based, Plasmodium falciparum

IC50 [1]: 105 nM
Ratio lowest IC50 8hr/IC50 72hr ([2]; 3D7-A10): 0.6
SMILES: COc1cncc(-c2cncc(N3CCN(c4ccncc4)CC3)n2)c1 [MMV085071]
IC50 ([2]; 3D7, read-out: Early rings Mean IC50 (IC50^8h), 8-h exposure 0–8 hr, 3D7-A10, survival at 60 h): 893 nM
IC50 ([2]; 3D7, read-out: Early trophozoites Mean IC50 (IC50^8h), 8-h exposure 16–24 hr, 3D7-A10, survival at 60 h): 61.1 nM
IC50 ([2]; 3D7, read-out: Late rings Mean IC50 (IC50^8h), 8-h exposure 8–16 hr, 3D7-A10, survival at 60 h): 492 nM
IC50 ([2]; 3D7, read-out: Late trophozoites Mean IC50 (IC50^8h), 8-h exposure 24–32 hr, 3D7-A10, survival at 60 h): 81.4 nM
IC50 ([2]; 3D7, read-out: Schizonts Mean IC50 (IC50^8h), 8-h exposure 32–40 hr, 3D7-A10, survival at 60 h): 254 nM
Peak Activity (Table S1) ([2]; stage(s) with the lowest IC50^8h): Trophs
changes within the set of metabolites detected (low fold change group) ([3]; 10 × IC50^72h, 2.5 hr, trophozoites): did not induce major changes
Log2(fold changes) 3-phosphoglycerate ([3]; metabolite 3-phosphoglycerate, log2 fold change): -0.3571
Log2(fold changes) 4-Pyridoxic acid ([3]; metabolite 4-Pyridoxic acid, log2 fold change): 0.1725
Log2(fold changes) 4-aminobutyrate ([3]; metabolite 4-aminobutyrate, log2 fold change): -0.2370
Log2(fold changes) 4-phosphopantetheine ([3]; metabolite 4-phosphopantetheine, log2 fold change): 0.0000
Log2(fold changes) 4-phosphopantothenate ([3]; metabolite 4-phosphopantothenate, log2 fold change): -0.0279
Log2(fold changes) 5-aminopentanoic acid ([3]; metabolite 5-aminopentanoic acid, log2 fold change): 0.0000
Log2(fold changes) 5-methyl-THF ([3]; metabolite 5-methyl-THF, log2 fold change): 0.0000
Log2(fold changes) 5-phosphoribosyl-1-pyrophosphate ([3]; metabolite 5-phosphoribosyl-1-pyrophosphate, log2 fold change): 0.0000
Log2(fold changes) 6-phospho-D-gluconate ([3]; metabolite 6-phospho-D-gluconate, log2 fold change): -0.0766
Log2(fold change) HVDD ([3]; metabolite HVDD): 1.5471
Log2(fold change) Hydroxyisocaproic acid ([3]; metabolite Hydroxyisocaproic acid): 0.0000
Log2(fold change) IDP ([3]; metabolite IDP): 0.0000
Log2(fold change) IMP ([3]; metabolite IMP): -0.0355
Log2(fold change) Inositol ([3]; metabolite Inositol): 0.0000
Log2(fold change) Isopentyl-PP ([3]; metabolite Isopentyl-PP): 0.0000
Log2(fold change) L-arginino-succinate ([3]; metabolite L-arginino-succinate): 0.7586
Log2(fold change) LD ([3]; metabolite LD): 1.2308
Log2(fold change) Myristoyl/tetradecanoyl-CoA ([3]; metabolite Myristoyl/tetradecanoyl-CoA): 0.0000
Log2(fold change) N-Acetyl-L-alanine ([3]; metabolite N-Acetyl-L-alanine): 0.1191
Log2(fold change) N-acetyl-L-ornithine ([3]; metabolite N-acetyl-L-ornithine): 1.0380
Log2(fold change) N-acetyl-glucosamine-1/6-phosphate ([3]; metabolite N-acetyl-glucosamine-1/6-phosphate): 0.0154
Log2(fold change) N-acetyl-glutamate ([3]; metabolite N-acetyl-glutamate): 0.1593
Log2(fold change) N-acetyl-glutamine ([3]; metabolite N-acetyl-glutamine): -0.2990
Log2(fold change) N-carbamoyl-L-aspartate ([3]; metabolite N-carbamoyl-L-aspartate): 0.1424
Log2(fold change) NAD+ ([3]; metabolite NAD+): 0.0189
Log2(fold change) NADH ([3]; metabolite NADH): 0.0000
Log2(fold change) NADP+ ([3]; metabolite NADP+): 0.1777
Log2(fold change) NADPH ([3]; metabolite NADPH): 0.0000
Log2(fold change) O-acetyl-L-serine ([3]; metabolite O-acetyl-L-serine): 0.0000
Log2(fold change) Octoluse 8/1P ([3]; metabolite Octoluse 8/1P): 0.0000
Log2(fold change) Octoluse Bisphosphate ([3]; metabolite Octoluse Bisphosphate): 0.0955
Log2(fold change) PD ([3]; metabolite PD): 0.1245
Log2(fold change) PE ([3]; metabolite PE): 0.4481
Log2(fold change) PEE ([3]; metabolite PEE): 1.1300
Log2(fold change) PEEK ([3]; metabolite PEEK): 1.3266
Log2(fold change) PVNF ([3]; metabolite PVNF): 0.3702
Log2(fold change) Pyroglutamic acid ([3]; metabolite Pyroglutamic acid): 0.0000
Log2(fold change) Pyrophosphate ([3]; metabolite Pyrophosphate): 0.0000
Log2(fold change) Ribose-5-phosphate ([3]; metabolite Ribose-5-phosphate): 0.0000
Log2(fold change) S-adenosyl-L-homocysteine ([3]; metabolite S-adenosyl-L-homocysteine): -0.0131
Log2(fold change) S-adenosyl-L-methioninamine ([3]; metabolite S-adenosyl-L-methioninamine): 0.0000
Log2(fold change) S-adenosyl-L-methionine ([3]; metabolite S-adenosyl-L-methionine): 0.0000
Log2(fold change) S-methyl-5'-thioadenosine ([3]; metabolite S-methyl-5'-thioadenosine): 0.0000
Log2(fold change) SD ([3]; metabolite SD): 0.5330
Log2(fold change) SDL ([3]; metabolite SDL): 0.1100
Log2(fold change) SID ([3]; metabolite SID): -0.3348
Log2(fold change) Sedoheptulose bisphosphate ([3]; metabolite Sedoheptulose bisphosphate): 0.0203
Log2(fold change) Thiamine pyrophosphate ([3]; metabolite Thiamine pyrophosphate): 0.0000
Log2(fold changes) UDP-D-glucose ([3]; metabolite UDP-D-glucose, log2 fold change): 0.0450
Log2(fold changes) UDP-D-glucuronate ([3]; metabolite UDP-D-glucuronate, log2 fold change): 0.0222
Log2(fold changes) UDP-N-acetyl-glucosamine ([3]; metabolite UDP-N-acetyl-glucosamine, log2 fold change): -0.1104
Log2(fold changes) UDP ([3]; metabolite UDP, log2 fold change): 0.8151
Log2(fold changes) UMP ([3]; metabolite UMP, log2 fold change): -0.2015
Log2(fold changes) UTP ([3]; metabolite UTP, log2 fold change): -0.1278
Log2(fold change) hydroxyphenylpyruvate ([3]; metabolite hydroxyphenylpyruvate): 0.0000
Log2(fold change) hydroxyproline/Aminolevulinate ([3]; metabolite hydroxyproline/Aminolevulinate): -0.0385
Log2(fold change) hypoxanthine ([3]; metabolite hypoxanthine): 0.0000
Log2(fold change) indole ([3]; metabolite indole): 0.0000
Log2(fold change) inosine ([3]; metabolite inosine): -0.0754
Log2(fold change) isoleucine ([3]; metabolite isoleucine): -0.1140
Log2(fold change) lactate ([3]; metabolite lactate): 0.0000
Log2(fold change) leucine ([3]; metabolite leucine): -0.0775
Log2(fold change) lysine ([3]; metabolite lysine): 0.0000
Log2(fold change) malate ([3]; metabolite malate): -0.0512
Log2(fold change) maleic acid ([3]; metabolite maleic acid): -0.0636
Log2(fold change) methionine ([3]; metabolite methionine): 0.2308
Log2(fold change) myo-inositol ([3]; metabolite myo-inositol): 0.0000
Log2(fold change) nicotinamide mononucleotide ([3]; metabolite nicotinamide mononucleotide): 0.0000
Log2(fold change) nicotinate ([3]; metabolite nicotinate): 0.2062
Log2(fold change) ornithine ([3]; metabolite ornithine): 0.0000
Log2(fold change) orotate ([3]; metabolite orotate): 0.3476
Log2(fold change) orotidine-5'-phosphate ([3]; metabolite orotidine-5'-phosphate): 0.4326
Log2(fold change) oxaloacetate ([3]; metabolite oxaloacetate): 0.0000
Log2(fold change) p-aminobenzoate ([3]; metabolite p-aminobenzoate): 0.0000
Log2(fold change) p-hydroxybenzoate ([3]; metabolite p-hydroxybenzoate): 0.0000
Log2(fold change) pantothenate ([3]; metabolite pantothenate): -0.2410
Log2(fold change) phenylalanine ([3]; metabolite phenylalanine): -0.1015
Log2(fold change) phenylpyruvate ([3]; metabolite phenylpyruvate): 0.0000
Log2(fold change) phosphoenolpyruvate ([3]; metabolite phosphoenolpyruvate): -0.3652
Log2(fold change) prephenate ([3]; metabolite prephenate): 0.0000
Log2(fold change) proline ([3]; metabolite proline): 0.0444
Log2(fold change) pyridoxine ([3]; metabolite pyridoxine): 0.0000
Log2(fold change) pyruvate ([3]; metabolite pyruvate): -0.4378
Log2(fold change) riboflavin ([3]; metabolite riboflavin): -0.6618
Log2(fold change) ribose ([3]; metabolite ribose): 0.0000
Log2(fold change) ribose-phosphate ([3]; metabolite ribose-phosphate): -0.0725
Log2(fold change) ribulose-5-phosphate ([3]; metabolite ribulose-5-phosphate): -0.2555
Log2(fold change) serine ([3]; metabolite serine): 0.5038
Log2(fold change) sn-glycerol-3-phosphate ([3]; metabolite sn-glycerol-3-phosphate): -0.1967
Log2(fold change) succinate/Methylmalonic acid ([3]; metabolite succinate/Methylmalonic acid): -0.0635
Log2(fold change) succinyl-CoA/methylmalonyl-CoA ([3]; metabolite succinyl-CoA/methylmalonyl-CoA): 0.0000
Log2(fold change) taurine ([3]; metabolite taurine): 0.0000
Log2(fold change) thiamine ([3]; metabolite thiamine): 0.0498
Log2(fold change) threonine/homoserine ([3]; metabolite threonine/homoserine): 0.1750
Log2(fold change) thymidine ([3]; metabolite thymidine): 0.0000
Log2(fold changes) thymine ([3]; metabolite thymine, log2 fold change): 0.0000
Log2(fold changes) trehalose-6-Phosphate ([3]; metabolite trehalose-6-Phosphate, log2 fold change): 0.0000
Log2(fold changes) tryptophan ([3]; metabolite tryptophan, log2 fold change): -0.0120
Log2(fold changes) tyrosine ([3]; metabolite tyrosine, log2 fold change): 0.0532
Log2(fold changes) uridine ([3]; metabolite uridine, log2 fold change): 0.0000
